# Results published in patent EP0565593B1, “REDUCING PESTICIDAL INTERACTIONS IN CROPS” (priority 1990, dated 1992).
# System: Corn
# Assay: Multi-crop greenhouse test, herbicide POE (Examples 62-64; Tables 61-63)
# Type: in vivo
# Conditions: COUNTER 15G and BEACON; Example 62
compound,measurement,value
"O=C(OCc1ccccc1)c1sc(Cl)nc1C(F)(F)F [Antidote No. 7, 5-Thiazolecarboxylic acid, 2-chloro-4-(trifluoromethyl)-, (phenylmethyl) ester]",corn injury,effectively reduced
"COC(=O)COC(c1ccccc1)c1ccccc1 [Antidote No. 12, Acetic acid, (diphenylmethoxy)-, methyl ester]",corn injury,effectively reduced
